Test results as given in patent US20080234384A1, “BIARYL AND BIHETEROARYL COMPOUNDS USEFUL IN TREATING IRON DISORDERS” (XENON PHARMACEUTICALS INC., priority 2007, published 2008).
pIC50: −log10 of the molar value. Counter-ions that a name gives are not always drawn.

Tested on: not given
Assay: not given
Conditions: not given

Structure (SMILES)	melting point
N=C(N)SCc1cc(F)ccc1Oc1ccc(Cl)cc1CSC(=N)N (as salt: hydrobromid) [Example 2.11, 2-[2-(2-carbamimidoylsulfanylmethyl-4-chlorophenoxy)-5-fluorobenzyl]isothiourea dihydrobromide]	> 230 °C
N=C(N)SCc1ccc(Cl)cc1Oc1cc([N+](=O)[O-])ccc1CSC(=N)N (as salt: hydrobromid) [Example 2.9, 2-[2-({[amino(imino)methyl]thio}methyl)-5-chlorophenoxy]-4-nitrobenzyl imidothiocarbamate dihydrobromide]	> 220 °C
N=C(N)SCc1cc(F)ccc1Oc1ccc([N+](=O)[O-])cc1CSC(=N)N (as salt: hydrobromid) [Example 2.14, 2-[2-({[amino(imino)methyl]thio}methyl)-4-fluorophenoxy]-5-nitrobenzyl imidothiocarbamate dihydrobromide]	> 220 °C
N=C(N)SCc1cc([N+](=O)[O-])ccc1Oc1cc(Cl)ccc1CSC(=N)N (as salt: hydrobromid) [Example 2.19, 2-[2-({[amino(imino)methyl]thio}methyl)-5-chlorophenoxy]-5-nitrobenzyl imidothiocarbamate dihydrobromide]	> 220 °C
N=C(N)SCc1ccccc1Oc1cccc(Cl)c1CSC(=N)N (as salt: hydrobromid) [Example 2.17, 2-[2-({[amino(imino)methyl]thio}methyl)-3-chlorophenoxy]benzyl imidothiocarbamate dihydrobromide]	150 to 152 °C
N=C(N)SCc1ccccc1Oc1ccc(Cl)cc1CSC(=N)N (as salt: hydrobromid) [Example 2.16, 2-[2-({[amino(imino)methyl]thio}methyl)-4-chlorophenoxy]benzyl imidothiocarbamate dihydrobromide]	> 220 °C
N=C(N)SCc1ccccc1Oc1ccc(F)cc1CSC(=N)N (as salt: hydrobromid) [Example 2.21, 2-[2-({[amino(imino)methyl]thio}methyl)-4-fluorophenoxy]benzyl imidothiocarbamate dihydrobromide]	> 220 °C
N=C(N)SCc1cc(F)ccc1Oc1cccc(Cl)c1CSC(=N)N (as salt: hydrobromid) [Example 2.10, 2-[2-(2-carbamimidoylsulfanylmethyl-3-chlorophenoxy)-5-fluorobenzyl]isothiourea dihydrobromide]	204 to 206 °C
N=C(N)SCc1ccccc1Oc1cc(Cl)ccc1CSC(=N)N (as salt: hydrobromid) [Example 2.18, 2-[2-({[amino(imino)methyl]thio}methyl)-5-chlorophenoxy]benzyl imidothiocarbamate dihydrobromide]	> 220 °C
N=C(N)SCc1cccc(CSC(=N)N)c1-c1c(CSC(=N)N)cccc1CSC(=N)N (as salt: hydrobromid) [Example 2.23, biphenyl-2,2′-6,6′-tetrayltetrakis(methylene)tetracarbamimidothioate tetrahydrobromide]	233 to 235 °C
N=C(N)SCc1cc(Cl)ccc1Oc1ccc([N+](=O)[O-])cc1CSC(=N)N (as salt: hydrobromid) [Example 2.20, 2-[2-({[amino(imino)methyl]thio}methyl)-4-chlorophenoxy]-5-nitrobenzyl imidothiocarbamate dihydrobromide]	> 220 °C

Next, values leading:

melting point	Structure (SMILES)
188 to 190 °C	N#CN=C(N)CCc1ccccc1Sc1ccccc1CCC(N)=NC#N [Example 7, 2-(6-(2-(cyanoamidino)ethyl)phenyl)thio-1-(2-(cyanoamidino)ethyl)benzene]
> 250 °C	N=C(N)SCc1ccccc1C(=O)c1cc(F)ccc1CSC(=N)N (as salt: hydrobromid) [Example 2.27, 2-(6-(amidinothiomethyl)phenyl)carbonyl-1-(amidinothiomethyl)-4-fluorobenzene dihydrobromide]
155 to 157 °C	N#CN=C(N)CCCc1ccccc1Sc1ccccc1CCCC(N)=NC#N [Example 7.2, 2-(6-(3-(cyanoamidino)propyl)phenyl)thio-1-(3-(cyanoamidino)propyl)benzene]
> 250 °C	N=C(N)SCc1ccccc1C(=O)c1ccc(F)cc1CSC(=N)N (as salt: hydrobromid) [Example 2.26, 2-(6-(amidinothiomethyl)phenyl)carbonyl-1-(amidinothiomethyl)-5-fluorobenzene dihydrobromide]
239 to 240 °C (dec.)	N=C(N)SCc1ccccc1C(=O)c1ccccc1CSC(=N)N (as salt: hydrobromid) [Example 2.25, 2-(6-(amidinothiomethyl)phenyl)carbonyl-1-(amidinothiomethyl)benzene dihydrobromide]
222 to 225 °C	COC(=O)c1cccc(CSC(=N)N)c1-c1c(CSC(=N)N)cccc1C(=O)OC (as salt: hydrobromid) [Example 2.24, dimethyl 6,6′-bis(carbamimidoylthiomethyl)biphenyl-2,2′-dicarboxylate dihydrobromide]
> 250 °C	N=C(N)SCc1ccccc1C(=O)c1cc(Cl)ccc1CSC(=N)N (as salt: hydrobromid) [Example 2.28, 2-(6-(amidinothiomethyl)phenyl)carbonyl-1-(amidinothiomethyl)-4-chlorobenzene dihydrobromide dihydrobromide]
> 220 °C	NC(N)=NC(=O)c1ccccc1Sc1ccccc1C(=O)N=C(N)N [Example 4, 2,2′-thiobis(N-(diaminomethylene)benzamide)]
> 250 °C	N=C(N)SCc1ccccc1C(=O)c1ccc(Cl)cc1CSC(=N)N (as salt: hydrobromid) [Example 2.29, 2-(6-(amidinothiomethyl)phenyl)carbonyl-1-(amidinothiomethyl)-5-chlorobenzene dihydrobromide]

Target: T1, DMT1 (Homo sapiens, UniProt P49281)
T1 sequence (P49281 1-568): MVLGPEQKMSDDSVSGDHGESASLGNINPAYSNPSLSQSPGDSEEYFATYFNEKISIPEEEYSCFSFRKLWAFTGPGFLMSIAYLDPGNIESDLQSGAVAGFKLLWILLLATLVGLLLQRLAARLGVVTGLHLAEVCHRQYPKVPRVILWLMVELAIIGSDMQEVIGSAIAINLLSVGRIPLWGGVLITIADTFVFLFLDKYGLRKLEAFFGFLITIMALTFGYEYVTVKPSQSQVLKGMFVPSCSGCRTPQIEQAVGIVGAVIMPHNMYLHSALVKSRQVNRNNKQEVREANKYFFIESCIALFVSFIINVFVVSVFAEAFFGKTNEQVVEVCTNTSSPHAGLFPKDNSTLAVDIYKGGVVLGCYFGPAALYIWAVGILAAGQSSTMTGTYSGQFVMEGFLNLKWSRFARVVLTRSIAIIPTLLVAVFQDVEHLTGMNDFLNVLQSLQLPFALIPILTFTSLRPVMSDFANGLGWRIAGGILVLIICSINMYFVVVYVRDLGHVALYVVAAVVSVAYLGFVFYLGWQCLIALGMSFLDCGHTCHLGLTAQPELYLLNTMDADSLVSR
Assay: DMT1 Activity Assay (In Vitro Assay)
Assay type: cell-based
Conditions: read-out: IC50 Activity Level
Source text: In particular, identification of the compounds of the invention ability to modulate, preferably to inhibit, DMT1 activity, can be assessed using a variety of in vitro and in vivo assays, for measuring uptake of reduced iron (Fe^2+). One such protocol involves the screening of chemical agents for ability to modulate the activity of DMT1 thereby identifying it as a modulating agent. The in vitro activity of DMT1 can be measured in cell based assays by either directly measuring iron flux (using a radioactively labelled iron ^55Fe) or by measuring the fluorescence of a cell permeable iron fluorophore such as calcein. Stable cell lines overexpressing DMT1 are exposed to ^55Fe or loaded with calcein and then compound is applied. […] Alternatively, in another format electrophysiological techniques can be used to measure the current or iron or other metals traversing the cell membrane with DMT1 in a Xenopus oocyte or other cell based system (Gunshin et al., Nature, 1997, 31; 388(6641):482-8).
This example discloses various in vitro assay for testing and profiling test agents against DMT1 stably expressed in cells of either an endogenous or recombinant origin. These assays can use stable cell lines overexpressing DMT1 or intestinal cells and intestinal tissue expressing endogenous DMT1. DMT1 function could also be assessed in other cell types that express DMT1. Of greatest relevance would be the erythrocytes (e.g. K562 cells) or hepatocytes (e.g. […]).
DMT1 function can be assessed in a number of ways, including monitoring fluorescence changes of an iron fluorophore (e.g. calcein), monitoring uptake of radiolabelled iron (55Fe or ^59Fe) (Picard et al., J. Biol. Chem., 2000, 275(46):35738-45 and Wetli et al., Chem. Biol. 2006 September; 13(9):965-72), or by assessing the current or transport of iron and other metals into the cells or tissues using standard electrophysiological techniques (Gunshin et al., Nature, 1997, 388(6641):482-8.).
Variations of these assays involve alterations of incubation times, the iron status of the cells and tissues (which may be modulated by chemical chelators or by harvesting from iron deficient animals), the metal cation detected and the pH of the reaction can generally be made by conventional techniques known to those skilled in the art.

Structure (SMILES)	pIC50
CS(=O)(=O)c1ccc(CSC(=N)N)c(Sc2ccc(F)cc2CSC(=N)N)c1 [Example 2.7, 2-{[2-({[amino(imino)methyl]thio}methyl)-4-fluorophenyl]thio}-4-(methylsulfonyl)benzyl imidothiocarbamate dihydrochloride]	≤ 6.00
N=C(N)SCc1ccccc1Oc1cc(Cl)ccc1CSC(=N)N [Example 2.18, 2-[2-({[amino(imino)methyl]thio}methyl)-5-chlorophenoxy]benzyl imidothiocarbamate dihydrobromide]	≤ 6.00
N=C(N)SCc1cc(F)ccc1Sc1cc(F)c(F)cc1CSC(=N)N [Example 1.16, 2-[2-(2-carbamimidoylsulfanylmethyl-4,5-difluorophenylsulfanyl)-5-fluorobenzyl]isothiourea dihydrobromide]	6.00 to 7.00
Cc1ccc(CSC(=N)N)c(Sc2ccccc2CSC(=N)N)c1 [Example 1.3, 2-[2-(2-carbamimidoylsulfanylmethyl-5-methylphenylsulfanyl)-benzyl]isothiourea dihydrobromide]	≤ 6.00
CN(c1ccccc1CSC(=N)N)c1ccccc1CSC(=N)N [Example 1.28, 2,2′-(methylazanediyl)bis(2,1-phenylene)bis-(methylene)dicarbamimidothioate trihydrobromide]	6.00 to 7.00
N=C(N)SCc1ccccc1Sc1ccc2ccccc2c1CSC(=N)N [Example 1.13, 2-[2-(1-carbamimidoylsulfanylmethylnaphthalen-2-ylsulfanyl)benzyl]-isothiourea dihydrobromide]	≤ 6.00

The next lines start with the values.

pIC50	Structure (SMILES)
≤ 6.00	N#CN=C(N)CCc1ccccc1Sc1ccccc1CCC(N)=NC#N [Example 7, 2-(6-(2-(cyanoamidino)ethyl)phenyl)thio-1-(2-(cyanoamidino)ethyl)benzene]
≤ 6.00	N#CN=C(N)CCCc1ccccc1Sc1ccccc1CCCC(N)=NC#N [Example 7.2, 2-(6-(3-(cyanoamidino)propyl)phenyl)thio-1-(3-(cyanoamidino)propyl)benzene]
≤ 6.00	N=C(N)CCc1ccccc1Sc1ccccc1CCC(=N)N [Example 6, 2-(6-(2-amidinoethyl)phenyl)thio-1-(2-amidinoethyl)benzene]
